Measured values: patent publication US20120184545A1, “HEART-SLOWING DRUG CONTAINING SHORT-ACTING BETA-BLOCKER AS TEH ACTIVE INGREDIENT” (ONO PHARMACEUTICAL CO., LTD., priority 2003, published 2012)
Where a name gives a salt, the structure may show the parent alone.

Key:
[1] = tested on: angina pectoris patients; experiment: efficacy and safety of landiolol hydrochloride in coronary angiography using MSCT; format: in vivo, human
Text: Evaluation of efficacy and safety of landiolol hydrochloride to the coronary angiography ability using MSCT:
In the imaging of MSCT, LightSpeed Ultra 16 (16-slices MSCT, manufactured by GE medical systems) was used.
As a Workstation, Advantage Workstation AW 4.2 (manufactured by GE Medical Systems) was used.
As an imaging analysis soft, CardIQ Analysis II manufactured by GE Medical Systems was used.
As contrast media, iomeprol 350 mgI/ml (brand name: Iomeron 350, manufactured by Eisai Co., Ltd., was used.
To four angina pectoris patients, was intravenously administered landiolol hydrochloride swiftly over a period of 1 minute (0.063 mg/kg/minute), followed by a sustained intravenous administration over a period of 10 minutes (0.02 mg/kg/minute).
The contrast media were administered 10 minutes after confirming that the heart rate was slowed down. The imaging timing was determined by a test injection method using contrast media. As a result of swift administration of iomeprol (10 ml) and saline (20 ml) sequentially, it took approximately average of 16 seconds for iomeprol to reach heart. Afterwards, iomeprol (70 ml) and saline (20 ml) were swiftly administered sequentially and in time with the timing when iomeprol reached heart, MSCT imaging was started.
Three-dimensional overall figures of coronary artery were grasped with (A), and then followed by evaluation of the lesion site with (B) and (C), optionally followed by addition of an orthogonal cross-section imaging of a coronary artery for further confirmation.
To the above four angina pectosis patients, landiolol hydrochloride was administered. […] The inhibition rate (%) was calculated by {(post-value/(pre-value)×100−100}.

[2] = cited from earlier work

Row | Structure (SMILES) | image quality of coronary angiography by MSCT ([1]; after administration of landiolol hydrochloride, iomeprol contrast medium, 16-slices MSCT) | lowering of the blood pressure (safety) ([1]; angina pectoris patients, after administration) | Heart rate after administration ([1]; four angina pectoris patients (n = 4), i.v. 0.063 mg/kg/minute for 1 minute, then 0.02 mg/kg/minute for 10 minutes, before administration 61.0) [min⁻¹] | Systolic blood pressure after administration ([1]; four angina pectoris patients (n = 4), i.v. 0.063 mg/kg/minute for 1 minute, then 0.02 mg/kg/minute for 10 minutes, before administration 173.3) [mmHg] | half life in blood [2]
1 | CC1(C)OC[C@@H](COC(=O)CCc2ccc(OC[C@@H](O)CNCCNC(=O)N3CCOCC3)cc2)O1 [landiolol hydrochloride, (−)-[(S)-2,2-dimethyl-1,3-dioxolan-4-yl]methyl-3-[4-[(S)-2-hydroxy-3-(2-morpholinocarbonylamino)ethylamino]propoxy]phenylpropionic acid hydrochloride] | extremely sharp | no excessive lowering of the blood pressure was found | 54.8 | 161.8 | 
2 | COC(=O)CCc1ccc(OCC(O)CNC(C)C)cc1 (centres unmarked) [esmolol hydrochloride, Methyl 3-[4-[2-hydroxy-3-(isopropylamino)propoxy]phenyl]propionic acid hydrochloride] |  |  |  |  | approximately 9 minutes
